Assays:
[1] = biological target: T1, Muscarinic acetylcholine receptor M4 (Rattus norvegicus, UniProt P08485); assay: Positive allosteric modulation of rat M4 receptor expressed in CHO cells co-expressing Gqui5 by calcium mobilization assay; format: functional, cell-based
T1 sequence (P08485 whole entry): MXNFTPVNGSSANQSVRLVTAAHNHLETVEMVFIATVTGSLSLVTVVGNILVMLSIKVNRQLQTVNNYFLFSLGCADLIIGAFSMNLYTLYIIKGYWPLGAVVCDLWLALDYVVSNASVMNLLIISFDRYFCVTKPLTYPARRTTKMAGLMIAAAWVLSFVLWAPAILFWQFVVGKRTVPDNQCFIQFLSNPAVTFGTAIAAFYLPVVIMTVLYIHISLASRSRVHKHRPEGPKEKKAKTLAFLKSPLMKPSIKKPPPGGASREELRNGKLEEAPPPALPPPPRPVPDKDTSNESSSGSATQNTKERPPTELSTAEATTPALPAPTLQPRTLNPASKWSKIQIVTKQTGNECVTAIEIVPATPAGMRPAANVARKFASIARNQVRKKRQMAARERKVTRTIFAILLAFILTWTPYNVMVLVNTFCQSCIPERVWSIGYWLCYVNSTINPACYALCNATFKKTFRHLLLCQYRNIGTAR

[2] = biological target: T2, Muscarinic acetylcholine receptor M4 (Rattus norvegicus) (UniProt P08485); assay: Positive allosteric modulation of rat M4 receptor expressed in CHO cells co-expressing Gqui5 by calcium mobilization assay relative to acetylcholine; format: functional, cell-based
T2 sequence (whole entry): T1 sequence (P08485 whole entry)

[3] = Ratio of total drug level in brain to plasma in Sprague-Dawley rat at 0.20 to 0.25 mg/kg, iv administered through cassette dosing after 0.25 hrs; format: ADME, organism-based
[4] = Ratio of unbound concentration in brain to plasma in Sprague-Dawley rat at 0.20 to 0.25 mg/kg, iv administered through cassette dosing after 0.25 hrs; format: ADME, organism-based
[5] = biological target: T3, Muscarinic acetylcholine receptor M4 (Homo sapiens, UniProt P08173); assay: Positive allosteric modulation of human M4 receptor expressed in CHO cells co-expressing Gqui5 by calcium mobilization assay; format: functional, cell-based; conditions: read-out: EC50
T3 sequence (P08173 whole entry): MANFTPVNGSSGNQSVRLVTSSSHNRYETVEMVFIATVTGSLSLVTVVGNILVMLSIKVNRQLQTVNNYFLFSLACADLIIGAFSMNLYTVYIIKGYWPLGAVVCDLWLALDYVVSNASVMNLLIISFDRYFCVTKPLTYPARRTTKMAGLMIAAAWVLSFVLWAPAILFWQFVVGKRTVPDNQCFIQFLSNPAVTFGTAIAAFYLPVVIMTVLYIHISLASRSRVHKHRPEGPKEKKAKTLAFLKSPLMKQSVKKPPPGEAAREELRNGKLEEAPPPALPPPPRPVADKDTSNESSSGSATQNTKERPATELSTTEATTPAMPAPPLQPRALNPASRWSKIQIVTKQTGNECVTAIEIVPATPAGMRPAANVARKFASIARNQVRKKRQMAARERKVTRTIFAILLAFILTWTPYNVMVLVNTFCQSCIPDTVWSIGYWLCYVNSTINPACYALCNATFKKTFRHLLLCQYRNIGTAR

[6] = biological target: T4, Muscarinic acetylcholine receptor M4 (Homo sapiens) (UniProt P08173); assay: Positive allosteric modulation of human M4 receptor expressed in CHO cells co-expressing Gqui5 by calcium mobilization assay relative to acetylcholine; format: functional, cell-based
T4 sequence (whole entry): T3 sequence (P08173 whole entry)

[7] = Intrinsic clearance in rat; format: ADME
[8] = Unbound fraction in rat plasma; format: ADME, cell-free
Cytochrome P450 2C9 = Cytochrome P450 2C9 (Homo sapiens, UniProt P11712); assay: Inhibition of CYP2C9 (unknown origin); format: ADME
[9] = Plasma clearance in Sprague-Dawley rat at 1 mg/kg, iv; format: ADME, organism-based
[10] = Volume of distribution at steady state in Sprague-Dawley rat at 1 mg/kg, iv; format: ADME, organism-based; conditions: in vivo; for Vd: Sprague-Dawley, read-out: Vdss
[11] = Ratio of unbound concentration in brain to plasma in Sprague-Dawley rat at 1 mg/kg, ip at 0.25 hrs; format: ADME, organism-based
[12] = biological target: T5, Muscarinic acetylcholine receptor M1 (Homo sapiens, UniProt P11229); assay: Displacement of [3H]-N-Methylscopolamine from human M1 receptor expressed in CHOK1 cells; format: cell-based, CHO-K1
T5 sequence (P11229 whole entry): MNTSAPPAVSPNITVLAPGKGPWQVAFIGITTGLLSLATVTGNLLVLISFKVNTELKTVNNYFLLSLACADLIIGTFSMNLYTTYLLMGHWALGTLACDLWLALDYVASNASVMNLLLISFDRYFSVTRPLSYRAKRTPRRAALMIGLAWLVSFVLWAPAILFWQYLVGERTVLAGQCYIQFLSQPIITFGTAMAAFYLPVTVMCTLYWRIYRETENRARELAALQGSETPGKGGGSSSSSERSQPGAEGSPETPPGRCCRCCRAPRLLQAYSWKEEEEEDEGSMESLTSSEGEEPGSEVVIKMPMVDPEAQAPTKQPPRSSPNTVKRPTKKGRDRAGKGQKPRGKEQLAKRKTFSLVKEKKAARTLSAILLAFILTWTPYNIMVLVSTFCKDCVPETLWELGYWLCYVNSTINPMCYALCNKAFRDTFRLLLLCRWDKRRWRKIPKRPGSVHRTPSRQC

[13] = biological target: T6, Muscarinic acetylcholine receptor M2 (Homo sapiens, UniProt P08172); assay: Displacement of [3H]-N-Methylscopolamine from human M2 receptor expressed in CHOK1 cells; format: cell-based, CHO-K1
T6 sequence (P08172 whole entry): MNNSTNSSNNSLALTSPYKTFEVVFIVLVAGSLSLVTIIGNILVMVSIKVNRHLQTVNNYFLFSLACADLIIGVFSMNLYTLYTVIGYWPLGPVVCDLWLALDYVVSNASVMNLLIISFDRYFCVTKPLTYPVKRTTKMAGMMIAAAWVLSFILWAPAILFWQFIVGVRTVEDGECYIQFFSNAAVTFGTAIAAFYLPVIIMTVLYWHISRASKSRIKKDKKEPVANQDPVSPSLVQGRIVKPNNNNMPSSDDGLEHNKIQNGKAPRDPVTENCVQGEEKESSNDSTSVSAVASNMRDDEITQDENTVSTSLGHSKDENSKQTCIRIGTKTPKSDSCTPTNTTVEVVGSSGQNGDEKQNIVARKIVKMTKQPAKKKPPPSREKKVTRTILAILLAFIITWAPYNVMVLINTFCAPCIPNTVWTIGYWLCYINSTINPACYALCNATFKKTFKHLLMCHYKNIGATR

[14] = biological target: Muscarinic acetylcholine receptor M3 (Homo sapiens, UniProt P20309); assay: Displacement of [3H]-N-Methylscopolamine from human M3 receptor expressed in CHOK1 cells; format: cell-based, CHO-K1
[15] = biological target: Muscarinic acetylcholine receptor M3 (Rattus norvegicus, UniProt P08483); assay: Binding affinity to rat M3 receptor by radio-ligand binding assay
[16] = biological target: Sodium-dependent serotonin transporter (Homo sapiens, UniProt P31645); assay: Displacement of [3H]-Paroxetine from recombinant human SERT expressed in HEK293 cells; format: cell-based
[17] = Ratio of total drug level in Sprague-Dawley rat brain to plasma at 0.20-0.25 mg/kg, iv at 0.25 hrs
[18] = Binding affinity to rat brain GABA receptor by radio-ligand binding assay

Cytochrome P450 2C9, sequence (P11712 whole entry): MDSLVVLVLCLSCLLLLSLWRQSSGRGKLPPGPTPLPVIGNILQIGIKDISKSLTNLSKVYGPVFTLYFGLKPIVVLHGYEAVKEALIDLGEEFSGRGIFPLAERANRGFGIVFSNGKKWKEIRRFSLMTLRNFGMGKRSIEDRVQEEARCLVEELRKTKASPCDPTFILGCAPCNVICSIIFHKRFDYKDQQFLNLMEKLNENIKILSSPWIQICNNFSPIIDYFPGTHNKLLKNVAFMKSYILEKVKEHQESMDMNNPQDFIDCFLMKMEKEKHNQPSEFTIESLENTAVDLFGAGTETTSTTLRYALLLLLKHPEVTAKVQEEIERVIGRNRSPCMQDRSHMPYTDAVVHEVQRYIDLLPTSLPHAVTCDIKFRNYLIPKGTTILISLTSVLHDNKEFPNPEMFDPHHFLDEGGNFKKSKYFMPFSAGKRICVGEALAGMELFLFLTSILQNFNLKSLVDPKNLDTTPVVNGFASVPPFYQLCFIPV
Muscarinic acetylcholine receptor M3 (Rattus norvegicus, UniProt P08483), sequence (P08483 whole entry): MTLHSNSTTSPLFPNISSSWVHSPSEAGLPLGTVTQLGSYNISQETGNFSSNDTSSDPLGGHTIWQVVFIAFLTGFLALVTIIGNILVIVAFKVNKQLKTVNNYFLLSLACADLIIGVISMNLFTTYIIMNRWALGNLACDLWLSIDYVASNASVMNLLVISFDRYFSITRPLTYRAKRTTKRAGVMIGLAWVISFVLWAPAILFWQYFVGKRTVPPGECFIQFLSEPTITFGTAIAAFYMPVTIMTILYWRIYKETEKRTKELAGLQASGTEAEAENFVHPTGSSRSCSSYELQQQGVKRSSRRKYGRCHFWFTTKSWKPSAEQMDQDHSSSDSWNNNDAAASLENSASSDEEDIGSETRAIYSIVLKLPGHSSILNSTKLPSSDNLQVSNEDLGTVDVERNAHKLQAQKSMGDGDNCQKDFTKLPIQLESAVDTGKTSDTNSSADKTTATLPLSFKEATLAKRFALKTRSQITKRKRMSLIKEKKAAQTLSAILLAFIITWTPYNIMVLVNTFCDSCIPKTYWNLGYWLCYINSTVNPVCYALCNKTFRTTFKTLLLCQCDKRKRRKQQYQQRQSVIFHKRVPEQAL
Muscarinic acetylcholine receptor M3 (Homo sapiens, UniProt P20309), sequence (P20309 whole entry): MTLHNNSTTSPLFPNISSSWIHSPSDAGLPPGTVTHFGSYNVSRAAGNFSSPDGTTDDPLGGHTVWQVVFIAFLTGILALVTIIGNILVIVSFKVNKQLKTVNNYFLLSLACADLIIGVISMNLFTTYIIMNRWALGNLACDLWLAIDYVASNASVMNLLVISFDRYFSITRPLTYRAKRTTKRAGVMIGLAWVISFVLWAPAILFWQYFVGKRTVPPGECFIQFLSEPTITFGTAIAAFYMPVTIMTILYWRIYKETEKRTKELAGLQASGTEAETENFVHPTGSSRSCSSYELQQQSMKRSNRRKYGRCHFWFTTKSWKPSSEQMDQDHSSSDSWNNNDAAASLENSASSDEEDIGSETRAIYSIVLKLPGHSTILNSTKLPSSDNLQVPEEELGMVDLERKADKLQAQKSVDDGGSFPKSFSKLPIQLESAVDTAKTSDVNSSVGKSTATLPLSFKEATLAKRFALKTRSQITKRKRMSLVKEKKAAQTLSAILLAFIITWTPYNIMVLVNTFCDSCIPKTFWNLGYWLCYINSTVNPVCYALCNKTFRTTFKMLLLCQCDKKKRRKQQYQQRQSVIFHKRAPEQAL
Sodium-dependent serotonin transporter, sequence (P31645 whole entry): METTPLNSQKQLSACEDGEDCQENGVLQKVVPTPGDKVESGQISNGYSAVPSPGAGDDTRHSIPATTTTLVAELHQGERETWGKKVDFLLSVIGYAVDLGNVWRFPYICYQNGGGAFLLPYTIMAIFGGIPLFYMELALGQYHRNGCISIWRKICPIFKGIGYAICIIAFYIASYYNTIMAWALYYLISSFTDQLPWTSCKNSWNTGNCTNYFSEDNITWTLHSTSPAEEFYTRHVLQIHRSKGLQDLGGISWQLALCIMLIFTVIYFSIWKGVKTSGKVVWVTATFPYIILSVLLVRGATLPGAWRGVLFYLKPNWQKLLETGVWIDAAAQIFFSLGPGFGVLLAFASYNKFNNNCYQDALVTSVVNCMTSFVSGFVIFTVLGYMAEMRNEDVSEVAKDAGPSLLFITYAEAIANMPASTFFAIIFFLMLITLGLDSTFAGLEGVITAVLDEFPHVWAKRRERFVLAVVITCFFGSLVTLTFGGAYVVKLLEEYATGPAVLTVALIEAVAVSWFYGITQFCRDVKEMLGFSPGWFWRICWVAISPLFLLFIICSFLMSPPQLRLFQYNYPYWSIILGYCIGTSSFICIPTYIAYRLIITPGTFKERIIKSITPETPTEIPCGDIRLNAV

Compound | EC50 [1] [µM] | Emax [2] [%] | Kp [3] | K(p,uu,brain) [4] | EC50 [5] [µM] | Emax [6] [%] | CLint scaled [7] [mL/min/kg] | IC50 (Cytochrome P450 2C9) [µM] | clearance [9] [mL/min/kg] | Vd [10] [L/kg] | K(p,uu,brain) [11] | EC50 [12] [µM] | EC50 [13] [µM] | EC50 [14] [µM] | EC50 [15] [µM] | IC50 [16] [µM] | Kp [17] | further results
Cc1nnc2sc(C(=O)NCc3ccc(S(=O)(=O)C(F)F)cc3)c(N)c2c1C | 0.0178 | 65.2 | 0.11 | 0.1 | 0.251 | 72.8 | 48.1 | > 30 | 16 | 2.9 | 0.1 | > 30 | > 30 | > 30 | > 30 | 0.6 | 0.11 | Fu [8]: 0.066
Cc1nnc2sc(C(=O)NCc3ccc(S(=O)(=O)C(F)(F)F)cc3)c(N)c2c1C | – | 68.1 | – | – | – | 56.4 | 47.7 | > 30 | – | – | 1.1 | > 30 | > 30 | > 30 | > 30 | – | 0.49 | fraction unbound [8]: 0.031; Vdss [10]: 3.1 L/kg
Cc1nnc2sc(C(=O)NCc3ccc(S(F)(F)(F)(F)F)cc3)c(N)c2c1C | 0.0302 | 75.7 | 1.4 | 1 | 0.55 | 66.1 | 95.9 | > 30 | 12 | 3.1 | 0.75 | > 30 | > 30 | > 30 | > 30 | 0.52 | 1 | IC50 [18]: 2.1 µM
